Like-named read-outs stand apart in the source and are kept apart here.
Tests used:
PHL [1] = biological target: T1, PHL (Photorhabdus asymbiotica, UniProt C7BLE4); assay type: binding; details: for Median: calculated from hexaplicates; for relative binding / preference on glycan array: PHL 200 μg/ml
PHL [2] = biological target: T1, PHL; assay: SPR inhibition of PHL binding to immobilized L-fucoside; details: for Potency relative to L-Fuc: SPR inhibition, from IC50
Description: (§1) SPR inhibition experiments were performed using the same conditions described above. The PHL lectin (0.25 μM final concentration) was mixed with various concentrations of inhibitors (1M – 0.01 mM) and injected onto the sensor chip. Pure PHL lectin was used as a control (0% inhibition). The response of the lectin bound to the sugar surface at equilibrium was plotted against the concentration of inhibitor in order to determine IC50.

PHL [3] = biological target: T1, PHL; assay: Isothermal titration calorimetry (ITC); assay type: binding; details: for binding stoichiometry: fitted
Description: (§2) ITC experiments were performed using an ITC200 calorimeter (Malvern, England). Experiments were performed at 25°C in buffer A (300 mM NaCl, 20 mM Tris/HCl, pH 7.5). Carbohydrate ligands were dissolved in the same buffer. Protein in the cell (50 μM) was titrated by consecutive addition (2 μl) of the ligand in the syringe (1.5–50 mM) while stirring at 1000 rpm. Control experiments performed with injections of buffer in the protein solution yielded insignificant signals. Integrated heat effects were analyzed by nonlinear regression using a single-site binding model in Origin 7 (Microcal). The experimental data fitted to a theoretical titration curve brought up stoichiometry (n), association constant Ka, and the enthalpy of binding ΔH. The other thermodynamic parameters such as free energy (ΔG) and […] (ΔS) were calculated from the equation ΔG = ΔH-TΔS = -RTlnKa, where T is the absolute temperature and R is the molar gas constant (8.314 J.mol^-1.K^-1). At least two independent titrations were carried out for each tested ligand.

PHL [4] = biological target: T1, PHL; assay: Haemagglutination inhibition assay with PHL; assay type: cell-based; details: for Potency towards L-fucose: haemagglutination inhibition, from MIC; for MIC (minimal inhibitory concentration) of haemagglutination by PHL: microscopy
Description: A haemagglutination inhibition assay was performed to determine the specificity and semi-quantitative affinity of PHL interaction with the saccharides. A wide range of monosaccharides at concentrations from 50 mM to 0.5 mM were used for determining the lowest inhibiting concentration. A 20 μl mixture composed of 5 μl PHL (2mg/ml), 5 μl saccharide, and 10 μl 10% RBCs was prepared (all components of reaction were in PBS buffer). After 10 minutes, the reaction was observed using a Levenhuk microscope.

PHL [5] = assay: SPR inhibition of PHL binding to immobilized L-fucoside; design: species or system Photorhabdus asymbiotica; details: IC50 from SPR inhibition, PLL data ref 21
Description: as §1

PHL [6] = assay: Isothermal titration calorimetry (ITC); assay type: binding, Photorhabdus asymbiotica; details: ITC, PLL data ref 21
Description: as §2

[7] = system: phenoloxidase (PO) in haemolymph of G. mellonella; assay: Phenoloxidase activity in insect haemolymph; assay type: biochemical, Galleria mellonella; details: 0.2M sugar, PHL 475 μg
Description: Larvae of the greater wax moth, Galleria mellonella, were reared on an artificial diet at 30 ± 1°C in constant darkness. Haemolymph was collected from the seventh instar larvae by cutting a proleg and pooling the haemolymph into a tube containing phenylthiourea (1 mg/ml in PBS; haemolymph mixed with phenylthiourea in the ratio 9:1 [v/v]) or used directly for the determination of phenoloxidase activity.
PO activity was measured according to previously published studies. Haemolymph of G. mellonella (5 μl) was collected directly to 95 μl of PHL (475 μg in PBS for all experiments except dose-dependence assay where different dilutions of PHL were used), PLL (475 μg in PBS), BSA (475 μg in PBS) or PBS (pH 7.4) and incubated for 10 min at room temperature. After incubation, 40 μl of reaction mixture was transported to the microplate well and 160 μl of 3,4-dihydroxy-DL-phenylalanine (3 mg/ml in PBS) was added as substrate. The reaction was allowed to proceed for 30 min, and absorbance was measured in 2-min intervals at 492 nm with a Sunrise reader (Tecan, Switzerland). PO activity was expressed as linear increase in absorbance per minute. For the inhibition assay, PHL was pre-incubated with 0.2M L-Fuc or Me-α-L-Fuc for 10 min at room temperature prior to mixing with haemolymph.

[8] = glycan array signal of PHL per printed glycan, microarray chip (Semiotic, Moscow; Slide number 10085636), 488 channel
[9] = glycan array signal of labelled PHL for the printed glycan/polysaccharide, Semiotic slide 10085636
[10] = SPR, PHL 0.25 μM binding to immobilized L-fucoside, 25°C, read-out: IC50
[11] = ITC at 25°C, stoichiometry fixed to 3, read-out: KD (n = 3)
[12] = ITC at 25°C, stoichiometry fixed to 4, read-out: KD (n = 4)
[13] = ITC, stoichiometry not fixed, read-out: equilibrium dissociation constant

T1 sequence (C7BLE4 1-369): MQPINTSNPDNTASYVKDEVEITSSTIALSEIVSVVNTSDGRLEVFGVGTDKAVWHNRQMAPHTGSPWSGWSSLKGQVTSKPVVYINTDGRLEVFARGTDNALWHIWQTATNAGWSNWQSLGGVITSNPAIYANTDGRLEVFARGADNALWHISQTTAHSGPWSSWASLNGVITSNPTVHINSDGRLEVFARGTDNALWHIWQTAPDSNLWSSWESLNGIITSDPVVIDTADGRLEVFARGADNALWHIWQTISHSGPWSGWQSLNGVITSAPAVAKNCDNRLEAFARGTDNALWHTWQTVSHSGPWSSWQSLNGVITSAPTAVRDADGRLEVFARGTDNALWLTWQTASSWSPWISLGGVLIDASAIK

## 4,6-O-Su2-GalNAcβ1-4-(3-O-Ac)GlcNAcβ-sp3
PHL [1]; [8]
  Median: 81

## Galβ1-4GlcNAcβ-sp8
PHL [1]; [8]
  Median: 83

## NCC(O)C(O)C(O)C(O)CO (stereo not shown) [HOCH2(HOCH)4CH2NH2]
PHL [1]; [9]
  Median: 70

## CC(=O)N[C@H]1C(O)O[C@H](CO)[C@@H](O[C@@H]2O[C@H](CO)[C@H](O)[C@H](O)[C@H]2O[C@@H]2O[C@@H](C)[C@@H](O)[C@@H](O)[C@@H]2O)[C@@H]1O (stereo partly shown) [BGH trisaccharide]
PHL [2]
  Potency relative to L-Fuc: 0.33
PHL [2]; [10]
  IC50: 1090 µM
PHL [3]; [11]
  Kd: 4440 ± 190 µM
PHL [3]; [12]
  Kd: 4350 ± 190 µM
PHL [4]
  Potency towards L-fucose: <0.01

## CO[C@H]1O[C@@H](C)[C@@H](O)[C@@H](O)[C@@H]1O [Me-β-L-Fuc, methyl-β-L-fucopyranoside]
PHL [2]
  Potency relative to L-Fuc: 0.47
PHL [2]; [10]
  IC50: 770 µM
PHL [3]; [11]
  Kd: 3550 ± 90 µM
PHL [3]; [12]
  Kd: 3480 ± 90 µM
PHL [4]
  Potency towards L-fucose: 0.5
  MIC (minimal inhibitory concentration) of haemagglutination by PHL: 6250 µM

## 6-O-Su-Galβ1-3(6-O-Su)GlcNAcβ-sp2
PHL [1]; [8]
  Median: 87

## CO[C@@H]1O[C@@H](C)[C@@H](O)[C@@H](O)[C@@H]1O [Me-α-L-Fuc, Methyl-α-L-fucopyranoside]
PHL [2]; [10]
  IC50: 40 µM
PHL [5]
  fold better inhibition effect for PHL than for PLL: 42 fold
PHL [3]; [11]
  Kd: 260 ± 40 µM
PHL [3]; [12]
  Kd: 210 µM
PHL [3]; ITC
  binding stoichiometry: approx. 2.9
PHL [3]; [13]
  Kd: 270 µM
PHL [6]
  fold higher affinity of PHL than PLL: approx. 4 fold
PHL [4]
  Potency towards L-fucose: 8
  MIC (minimal inhibitory concentration) of haemagglutination by PHL: 390 µM
[7]
  PHL activation of melanisation in the presence of sugar: inhibited

## 6-O-Su-Galβ1-3GlcNAcβ-sp3
PHL [1]; [9]
  Median: 73

## CC(=O)N[C@@H]1[C@@H](O)[C@H](O[C@@H]2O[C@H](CO)[C@@H](O)[C@H](O)[C@H]2NC(C)=O)[C@@H](CO)O[C@H]1NC(=O)C[C@H](N)C(=O)O [GlcNAcβ1-4GlcNAcβ-Asn]
PHL [1]; [9]
  Median: 77

## OC[C@H]1OC(O)[C@H](O)[C@@H](O)[C@@H]1O (stereo partly drawn) [D-Glc]
PHL [2]
  Potency relative to L-Fuc: < 0.01
PHL [3]; [11]
  Kd: 3550 ± 150 µM
PHL [3]; [12]
  Kd: 3480 ± 150 µM
PHL [4]
  Potency towards L-fucose: <0.01

## Galβ1-4GlcNAcβ1-6(Galβ1-4GlcNAcβ1-3)GalNAcα-sp3
PHL [1]; [9]
  Median: 71

## Galβ1-6Galβ-sp4
PHL [1]; [8]
  Median: 85

## GlcNAcβ1-4Galβ1-4GlcNAcβ-sp2
PHL [1]; [8]
  Median: 86

## O=C[C@H](O)[C@@H](O)[C@@H](O)[C@H](O)CO [D-Gal, D-galactose]
PHL [2]
  Potency relative to L-Fuc: < 0.01
PHL [3]; KD (n = 3), ITC at 25°C, stoichiometry fixed to 3
  Kd: 890 ± 20 µM
PHL [3]; KD (n = 4), ITC at 25°C, stoichiometry fixed to 4
  Kd: 830 ± 20 µM
PHL [4]
  Potency towards L-fucose: <0.01

## CC(=O)N[C@H]1C(O)O[C@H](CO)[C@@H](O)[C@@H]1O[C@@H]1O[C@@H](C)[C@@H](O)[C@@H](O)[C@@H]1O (stereo partly shown) [Fucα1-3GlcNAc]
PHL [2]
  Potency relative to L-Fuc: 0.53
PHL [2]; [10]
  IC50: 690 µM
PHL [3]; [11]
  Kd: 3520 ± 210 µM
PHL [3]; [12]
  Kd: 3430 ± 210 µM
PHL [4]
  Potency towards L-fucose: 1.3
  MIC (minimal inhibitory concentration) of haemagglutination by PHL: 2500 µM

## 6-H2PO3Manα-sp3
PHL [1]; [8]
  Median: 83

## CC(=O)N[C@H]1[C@@H](O[C@H]2[C@@H](O)[C@@H](CO)O[C@@H](O)[C@@H]2O[C@@H]2O[C@@H](C)[C@@H](O)[C@@H](O)[C@@H]2O)O[C@H](CO)[C@H](O)[C@@H]1O [BGA trisaccharide]
PHL [2]
  Potency relative to L-Fuc: 1.21
PHL [2]; [10]
  IC50: 300 µM
PHL [3]; [11]
  Kd: 1450 ± 30 µM
PHL [3]; [12]
  Kd: 1380 ± 40 µM
PHL [4]
  Potency towards L-fucose: 1.3
  MIC (minimal inhibitory concentration) of haemagglutination by PHL: 2500 µM

## 4-O-Su-Galβ1-4GlcNAcβ-sp3
PHL [1]; [9]
  Median: 77

## 6-O-Su-Galβ1-3GalNAcα-sp3
PHL [1]; [8]
  Median: 81

## GalNAcα1-3(Fucα1-2)Galβ1-4GlcNAcβ-sp3
PHL [1]; [8]
  Median: 79

## C[C@H](O)[C@@H](O)[C@@H](O)[C@H](O)C=O [L-Fuc, L-fucose]
PHL [2]
  IC50: 360 µM
PHL [5]
  fold better inhibition effect for PHL than for PLL: 15 fold
PHL [3]; [11]
  Kd: 1400 ± 30 µM
PHL [3]; [12]
  Kd: 1330 ± 40 µM
PHL [6]
  fold higher affinity of PHL than PLL: approx. 4 fold
PHL [4]
  Potency towards L-fucose: 1
  MIC (minimal inhibitory concentration) of haemagglutination by PHL: 3125 µM
[7]
  PHL activation of melanisation in the presence of sugar: inhibited

## GlcNAcβ-sp8
PHL [1]; [8]
  Median: 78

## Galα1-4GlcNAcβ-sp8
PHL [1]; [9]
  Median: 75

## CC(=O)N[C@H]1C(O)O[C@H](CO)[C@@H](O[C@@H]2O[C@@H](C)[C@@H](O)[C@@H](O)[C@@H]2O)[C@@H]1O (stereo partly shown) [Fucα1-4GlcNAc]
PHL [2]
  Potency relative to L-Fuc: 0.49
PHL [2]; [10]
  IC50: 730 µM
PHL [3]; [11]
  Kd: 4460 ± 310 µM
PHL [3]; [12]
  Kd: 4370 ± 310 µM
PHL [4]
  Potency towards L-fucose: 1.3
  MIC (minimal inhibitory concentration) of haemagglutination by PHL: 2500 µM

## Galα1-3Galβ1-4GlcNAcβ-sp3
PHL [1]; [9]
  Median: 70

## OC[C@H]1OC(O)[C@@H](O)[C@@H](O)[C@@H]1O (stereo partly drawn) [D-Man, D-mannose]
PHL [2]
  Potency relative to L-Fuc: < 0.01
PHL [3]; [11]
  Kd: 44600 ± 2000 µM
PHL [3]; [12]
  Kd: 44400 ± 2000 µM
PHL [4]
  Potency towards L-fucose: <0.01

## COC[C@H]1O[C@@H](O[C@@H]2[C@@H](OC)[C@@H](OC)[C@H](Oc3ccc(OCCN)cc3)O[C@H]2C)[C@H](O)[C@@H](OC)[C@@H]1O [3,6-O-Me2-Glcβ1-4(2,3-O-Me2)Rhaα-O-(p-C6H4)-OCH2CH2NH2]
PHL [1]
  relative binding / preference on glycan array: most preferred complex saccharide

## CC(=O)N[C@H]1[C@H](OCCCN)O[C@H](CO)[C@@H](O[C@@H]2O[C@H](CO)[C@H](OS(=O)(=O)O)[C@H](OS(=O)(=O)O)[C@H]2O)[C@@H]1O [3,4-O-Su2-Galβ1-4GlcNAcβ-sp3]
PHL [1]; [8]
  Median: 87

## 4,6-O-Su2-Galβ1-4GlcNAcβ-sp2
PHL [1]; [9]
  Median: 77

## GalNAcβ1-4GlcNAcβ-sp2
PHL [1]; [8]
  Median: 87

## CC(=O)N[C@@H]1[C@@H](O)[C@H](O)[C@@H](CO)O[C@@H]1O [D-GlcNAc, N-acetyl-D-glucosamine]
PHL [2]
  Potency relative to L-Fuc: 0.01
PHL [2]; [10]
  IC50: 70500 µM
PHL [4]
  Potency towards L-fucose: <0.01

## CC(=O)N[C@H]1[C@@H](OC[C@H](N)C(=O)O)O[C@H](CO)[C@H](O)[C@@H]1O [GalNAcα1-OSer]
PHL [1]; [9]
  Median: 71

## GalNAcα1-3Galβ1-4(Fucα1-3)GlcNAcβ-sp3
PHL [1]; [9]
  Median: 73

## Curdlan
PHL [1]; [9]
  Median: 75

## C[C@@H]1O[C@@H](O[C@H]2C(O)O[C@H](CO)[C@H](O)[C@@H]2O[C@H]2O[C@H](CO)[C@H](O)[C@H](O)[C@H]2O)[C@@H](O)[C@H](O)[C@@H]1O (stereo partly shown) [BGB trisaccharide]
PHL [1]
  relative binding / preference on glycan array: strongest binding to human-related oligosaccharides
PHL [2]
  Potency relative to L-Fuc: 5.15
PHL [2]; listed as blood group B trisaccharide
  Potency relative to L-Fuc: ~5
PHL [2]; [10]
  IC50: 70 µM
PHL [3]; [11]
  Kd: 570 ± 10 µM
PHL [3]; [12]
  Kd: 510 ± 10 µM
PHL [3]; ITC
  binding stoichiometry: ~4.3
PHL [3]; [13]
  Kd: 490 µM
PHL [4]
  Potency towards L-fucose: 10
